Assays:
Type in all cases: cell-based
K. pneumoniae BAA-2342 = experiment: Chloramphenicol MIC with selected compound in MHB; settings: Klebsiella pneumoniae, BAA2342, antibiotic alone (row None), MHB
Excerpt: (§1) MIC for the antibiotic alone (i.e., in the absence of the disclosed compounds) is provided in the first row labeled “None”. […] […] […] Thus, the compounds of the disclosure may be used to potentiate the activity of antibiotics that have lost their efficacy due to efflux.

A. baumannii MB306 = experiment: Chloramphenicol MIC with selected compound in MHB; settings: Acinetobacter baumannii, antibiotic alone (row None), MHB
Excerpt: as §1

E. cloacae BAA-2341 = experiment: Chloramphenicol MIC with selected compound in MHB; settings: Enterobacter cloacae, BAA2341, antibiotic alone (row None), MHB
Excerpt: as §1

A. baumannii MB309 = experiment: Chloramphenicol MIC with selected compound in MHB; settings: Acinetobacter baumannii, antibiotic alone (row None), MHB
Excerpt: as §1

E. coli BAA-2340 = experiment: Chloramphenicol MIC with selected compound in MHB; settings: Escherichia coli, BAA2340, antibiotic alone (row None), MHB
Procedure: (§2) MIC for the antibiotic alone (i.e., in the absence of the disclosed compounds) is provided in the first row labeled “None”. […] […] At this concentration (50 μg/mL), the compounds of the disclosure lacked intrinsic antibacterial activity but a significant improvement in efficacy was still observed. Thus, the compounds of the disclosure may be used to potentiate the activity of antibiotics that have lost their efficacy due to efflux.

[1] = tested on: P. aeruginosa Focus MB0477; experiment: Chloramphenicol MIC with selected compound in MHB; settings: Pseudomonas aeruginosa, FOCUSMB0477, antibiotic alone (row None), MHB
Procedure: as §2

K. pneumoniae BAA-1705 = experiment: Ciprofloxacin MIC with selected compound in MHB; settings: Klebsiella pneumoniae, BAA1705, read-out: Ciprofloxacin MIC, antibiotic alone (row None), MHB
Procedure: as §2

[2] = tested on: S. enterica serovar Typhimurium SL1344 sifB::gfp in RAW264.7 macrophages; experiment: SAFIRE assay, intracellular bacterial load in macrophages; settings: Salmonella enterica
Procedure: The following experiments were performed using the SAFIRE assay described in U.S. Publication 2020/0022961, which is incorporated by reference in its entirety for all purposes. SAFIRE (Screen for Anti-infectives using Fluorescence microscopy of IntracellulaR Enterobacteriaceae) uses cell culture as a surrogate to identify compounds that prevent intracellular replication of a model Gram-negative bacterial human pathogen. The method identifies compounds that prevent bacterial growth in broth culture and compounds that decrease the load of Gram-negative bacteria inside of macrophages at concentrations≤10 μM but have no effect on bacterial growth in standard Mueller Hinton broth (MHB) at 100 μM. Thus, SAFIRE enables the discovery of compounds that are effective against Gram-negative bacteria in host cells and in whole animals, whether or not they are antibacterial in broth.
The wild-type S. enterica serovar Typhimurium strain, SL1344, was initially isolated from the blood of an infected calf. For screening and validation in macrophages, SL1344 sifB::gfp was grown in Luria-Bertani Broth (LB) with 30 μg/ml streptomycin and 30 μg/ml kanamycin to saturation overnight, diluted to an OD of 0.001 and frozen in 100 μL aliquots in 20% glycerol at −80° C. Prior to infection, aliquots were grown in 5 mL cultures of LB with 30 μg/ml streptomycin and 30 μg/ml kanamycin for 18 hours at 37° C. with aeration. Bacterial strains were routinely grown in LB with antibiotics: 30 μg/ml streptomycin, 30 μg/ml kanamycin, 50 μg/ml ampicillin, 10 μg/ml tetracycline, and/or 1.15 μg/ml meropenem. The acrAB::kan and macAB::kan strains were constructed according to known methods. S. enterica subsp. enterica, serovar Typhimurium strain S10801, NR-22067 is a multidrug resistant isolate from a calf with sepsis. This strain and others as indicated were obtained through BEI resources, NIAID, NIH.
(§3) Murine macrophage-like RAW 264.7 cells and HeLa human epithelial cells were obtained from the American Type Tissue Collection. BMDMs were isolated as previously described. Briefly, marrow was flushed from the femurs of 1- to 4-month-old 129SvEvTac mice (Taconic Laboratories) bred in-house. Mononuclear cells were separated using Histopaque-1083 (Sigma), washed, and directly seeded into assay plates at 1×10^5 cells/ml in complete medium supplemented with 35% conditioned media from 3T3 cells expressing MCSF. Media were refreshed three days later. After 1 week, media were replaced with 100 μL fresh media and cells were infected as described below. All three types of cells were grown in DMEM high glucose (Sigma) supplemented with 10% fetal bovine serum, 2 mM L-glutamine, 1 mM sodium pyruvate, 10 mM HEPES, and 50 μMβ-mercaptoethanol. Cells were maintained in a 5% CO2 humidified atmosphere at 37° C. For screening, frozen aliquots of RAW 264.7 were thawed and allowed to expand for three days prior to seeding; other experiments were performed with cultures between passages four and 20.
SAFIRE—RAW264.7 macrophages (7×103 in 40 μL or 5×104 in 100 μL) were seeded, respectively, in 384- or 96-well black-walled glass-bottomed plates (Brooks Automation). Twenty four hours post-seeding, bacteria in 20 or 50 μL PBS were added to a final concentration of 1×10^7 CFU/mL, conditions yielding infection of approximately 70% of macrophages at 18 hours post-infection with minimal macrophage toxicity. The sifB::gfp bacterial reporter strain was used to minimize green signal from extracellular bacteria. […] At two hours post-infection, 200 or 500 nL compound was added using a pin tool (CyBio) to yield a final concentration of 25 μM. Each assay plate included rifampicin and DMSO controls. In some experiments, media were removed and replaced with fresh media containing 40 μg/mL gentamicin and increasing concentrations of the compounds of the disclosure. […]

E. Cloacae MB315 = experiment: PMB MIC with selected compound in MHB; settings: Enterobacter cloacae, selected compound 50 μg/mL in MHB
Procedure: as §2

RAW264.7 macrophages = settings: mouse, 16 h
Excerpt: as §3
SAFIRE—RAW264.7 macrophages (7×103 in 40 μL or 5×104 in 100 μL) were seeded, respectively, in 384- or 96-well black-walled glass-bottomed plates (Brooks Automation). Twenty four hours post-seeding, bacteria in 20 or 50 μL PBS were added to a final concentration of 1×10^7 CFU/mL, conditions yielding infection of approximately 70% of macrophages at 18 hours post-infection with minimal macrophage toxicity. The sifB::gfp bacterial reporter strain was used to minimize green signal from extracellular bacteria. […] At two hours post-infection, 200 or 500 nL compound was added using a pin tool (CyBio) to yield a final concentration of 25 μM. Each assay plate included rifampicin and DMSO controls. In some experiments, media were removed and replaced with fresh media containing 40 μg/mL gentamicin and increasing concentrations of the compounds of the disclosure. At 17.5 hours post-infection, PBS containing MitoTracker Red CMXRos (Life Technologies) was added to a final concentration of 300 nM or 100 nM, for 384- or 96-well, respectively. Thirty minutes later, 16% paraformaldehyde was added to a final concentration of […] and incubated at room temperature for 15 minutes. Wells were washed twice with PBS and stained for 20 minutes with 1 μMDAPI; wells were washed twice and stored in 90% glycerol in PBS until imaging. The Z′-factor of the screening platform was 0.59 and 0.48 in 96-well and 384-well plates, respectively, within published ranges for complicated cell-based screens.
In addition, toxicity was measured according the following procedure: 1) analyzing macrophage cell morphology; and 2) using MATLAB to count cells (cells that lift up and float after treatment are not within the appropriate Z plane to be counted, and thus are considered dead). If 70% of the cells are adherent (as measured by comparing the number of cells before and after treatment), the compound is considered not toxic. Compounds that pass #1 and #2 above are considered to have a toxicity “>50 μM”. […]

| SMILES | IC50 [2] | MIC (E. Cloacae MB315) | Toxicity (RAW264.7 macrophages) | further results |
| --- | --- | --- | --- | --- |
| O=C(N[C@H](CO)[C@H](O)c1ccc([N+](=O)[O-])cc1)C(Cl)Cl [Chloramphenicol, chloramphenicol] | – | – | – | MIC (K. pneumoniae BAA-2342): 64 µg/mL; MIC (A. baumannii MB306): > 64 µg/mL; MIC (E. cloacae BAA-2341): 16 µg/mL; MIC (A. baumannii MB309): > 64 µg/mL; MIC (E. coli BAA-2340): 64 µg/mL; MIC [1]: 64 µg/mL |
| O=C(O)c1cn(C2CC2)c2cc(N3CCNCC3)c(F)cc2c1=O [Ciprofloxacin, ciprofloxacin] | – | – | – | MIC (K. pneumoniae BAA-1705): > 64 µg/mL |
| NC1CCN(CC(O)COc2ccc(Cl)c(Cl)c2)C1 (centres unmarked) [Compound 1] | < 1000 nM | 32 µg/mL | >50 µM | – |
| NC1CCN(C[C@H](O)COc2ccc(Cl)c(Cl)c2)C1 (some centres unmarked) [Compound 2] | < 1000 nM | – | >50 µM | – |
| NC1CCN(C[C@@H](O)COc2ccc(Cl)c(Cl)c2)C1 (some centres unmarked) [Compound 3] | < 1000 nM | 32 µg/mL | >50 µM | – |
| NC1CCN(CC(O)COc2ccc(Cl)c(Cl)c2)CC1 (centres unmarked) [Compound 4] | < 1000 nM | 16 µg/mL | <25 µM | – |
| OC(COc1ccc(Cl)c(Cl)c1)CN1CCC(n2ccnc2)CC1 (centres unmarked) [Compound 5] | < 1000 nM | – | >50 µM | – |
| NC1CCN(CC(O)COc2ccc(Cl)cc2)CC1 (centres unmarked) [Compound 6] | < 1000 nM | – | >50 µM | – |
| NC1CCN(CC(O)COc2ccc(Cl)cc2Cl)CC1 (centres unmarked) [Compound 7] | < 1000 nM | 32 µg/mL | <50 but >25 μM | – |
| NC1CCN(CC(O)COc2c(Cl)cccc2Cl)CC1 (centres unmarked) [Compound 8] | < 1000 nM | – | >50 µM | – |
| N[C@@H]1CCN(CC(O)COc2ccc(Cl)c(Cl)c2)C1 (some centres unmarked) [Compound 9] | < 1000 nM | – | >50 µM | – |

Source: patent US20240350454A1, “BACTERIAL EFFLUX PUMP INHIBITORS AND METHODS OF USE” (THE REGENTS OF THE UNIVERSITY OF COLORADO, priority 2021, published 2024)
